Active and inactive are the calls of the source.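 How the source made its calls: active means percent MAC1 positive of at least 15% at the highest dose, plus EC50 under 10 µM; inactive means the rest.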
system: not listed separately; assay: MAC1 induction in U937 cells – cell-based, MAC1 flow cytometry, set 1, SAR follow-up (AID 743178); conditions: U937 myeloid differentiation, MAC1 flow cytometry, 4 d; at 10 µM (top of the series)

Row | Compound | percent MAC1 positive
1 | O=C(O)c1ccccc1OCc1ccccc1Br | 0% (inactive)
2 | CC(NC(=O)CCNC(=O)c1ccc(Cl)cc1)c1ccc2c(c1)OCO2 (centres undefined) | 1.17% (inactive)
3 | NCCC(=O)N[C@@H]1CCCc2ccccc21 | 1.1% (inactive)
4 | O=C(NC1CCOc2ccccc21)C1CCCN(C(=O)c2ccc(Cl)cc2)C1 (centres undefined) | 0.843% (inactive)
5 | N#Cc1ccc(C(=O)NCCC(=O)N[C@@H]2CCCc3ccccc32)cc1 | 0.711% (inactive)
6 | O=C(CNC(=O)c1ccc(C(F)(F)F)cc1)N[C@@H]1CCCc2ccccc21 | 1.08% (inactive)
7 | Cc1ccc(C)c(OCCn2cc(C(=O)O)c3ccccc32)c1 | 0% (inactive)
8 | O=C(CCCNC(=O)c1ccc(Cl)c(Cl)c1)N[C@@H]1CCCc2ccccc21 | 1.27% (inactive)
9 | CC(C)(C)OC(=O)NCCC(=O)N[C@@H]1CCCc2ccccc21 | 1.18% (inactive)
10 | C[C@@H](NC(=O)CCNC(=O)c1ccc(Cl)cc1)c1ccccc1 | 1.51% (inactive)
11 | O=C(NC1CCc2ccccc21)C1CCCN(C(=O)c2ccc(Cl)cc2)C1 (centres undefined) | 1.16% (inactive)
12 | O=C(CCNC(=O)c1ccc(Cl)cc1)N[C@@H]1CCc2ccccc21 | 6% (inactive)
13 | COc1ccc(C(=O)NCCC(=O)N[C@@H]2CCCc3ccccc32)cc1 | 28.1% (inactive)
14 | Cc1cccc(C(=O)NCCC(=O)NC2CCCc3ccccc32)c1 (centres undefined) | 1.09% (inactive)
15 | O=C(CNC(=O)c1ccc(Cl)cc1)N[C@@H]1CCCc2ccccc21 | 1.65% (inactive)
16 | CC(NC(=O)CCNC(=O)c1ccc(Cl)cc1)c1ccc(F)cc1 (centres undefined) | 3.42% (inactive)

Row | Compound | percent MAC1 positive
17 | O=C(CCCNC(=O)c1ccc(OC(F)(F)F)cc1)N[C@@H]1CCCc2ccccc21 | 0.912% (inactive)
18 | CC(C)(C)OC(=O)NCCC(=O)N[C@H]1CCCc2ccccc21 | 1.16% (inactive)
19 | O=C(Cc1ccc(Cl)cc1)NCCC(=O)N[C@@H]1CCCc2ccccc21 | 13.3% (inactive)
20 | CC(=O)NCCC(=O)N[C@@H]1CCCc2ccccc21 | 0.776% (inactive)
21 | CC(c1ccccc1)N(C)C(=O)CCNC(=O)c1ccc(Cl)cc1 (centres undefined) | 0.788% (inactive)
22 | CC(NC(=O)C1CCCN(C(=O)c2ccc(Cl)cc2)C1)c1ccccc1 (centres undefined) | 1.23% (inactive)
23 | O=C(CCNC(=O)c1ccc(Cl)cc1)NC1CCCCC1 | 1.63% (inactive)
24 | O=C(CNC(=O)c1ccc(OC(F)(F)F)cc1)N[C@@H]1CCCc2ccccc21 | 1.56% (inactive)
25 | O=C(O)c1cccnc1Nc1ccc(Cl)cc1 | 85% (inactive)
26 | O=C(CCCNC(=O)c1ccc(Cl)cc1)N[C@@H]1CCCc2ccccc21 | 1.04% (inactive)
27 | O=C(CCNC(=O)c1ccccc1)N[C@@H]1CCCc2ccccc21 | 1.8% (inactive)
28 | COc1ccccc1C(C)NC(=O)CCNC(=O)c1ccc(Cl)cc1 (centres undefined) | 0.779% (inactive)
29 | O=C(CCNC(=O)c1ccc(Cl)cc1)N[C@H]1CCCc2ccccc21 | 2.12% (inactive)
30 | O=C(CNC(=O)c1ccc(Cl)c(Cl)c1)N[C@@H]1CCCc2ccccc21 | 1.68% (inactive)
31 | O=C(CCCNC(=O)c1ccc(C(F)(F)F)cc1)N[C@@H]1CCCc2ccccc21 | 2.46% (inactive)

system: U937 myeloid differentiation, MAC1 flow cytometry, 4 d; assay: as above; conditions: not given

Row | Compound | EC50 [µM]
32 | O=C(CCNC(=O)c1ccc(Cl)cc1)N[C@@H]1CCCc2ccccc21 | 2.78
33 | O=C(CCNC(=O)c1ccc2c(c1)OC(F)(F)O2)N[C@@H]1CCCc2ccccc21 | 4.41
34 | O=C(CCNC(=O)c1ccc(Cl)c(Cl)c1)N[C@@H]1CCCc2ccccc21 | 3.4
35 | O=C(CCNC(=O)c1ccc(Cl)cc1)NC1CCCc2ccccc21 (centres undefined) | 4.57
36 | Cc1ccc(C(=O)NCCC(=O)N[C@@H]2CCCc3ccccc32)cc1 | 4.21
37 | O=C(CCNC(=O)c1ccc(C(F)(F)F)cc1)N[C@@H]1CCCc2ccccc21 | 2.26
38 | O=C(CCNC(=O)c1ccc(OC(F)(F)F)cc1)N[C@@H]1CCCc2ccccc21 | 2.07
39 | O=C(CCNC(=O)c1cccc(Cl)c1)N[C@@H]1CCCc2ccccc21 | 7.94
